What was measured:
Test in all cases: biochemical
Parameters in all cases: KINOMEscan active-site-directed competition binding panel, 468 kinases, percent of DMSO control at 1 uM
Settings in all cases: KINOMEscan binding, percent of DMSO control; read-out: Ctrl%
[1] = target: T1, RPS6KA4(Kin.Dom.1-N-terminal) (Homo sapiens, UniProt O75676)
T1 construct: Kin.Dom.1-N-terminal

FLT3(N841I) = FLT3(N841I) (Homo sapiens, UniProt P36888, N841I)
NIM1 = target: T2, NIM1 (Homo sapiens, UniProt Q8IY84)
T2 construct: gene NIM1K

ACVRL1 = ACVRL1 (Homo sapiens, UniProt P37023)
TAOK1 = TAOK1 (Homo sapiens, UniProt Q7L7X3)
PLK3 = PLK3 (Homo sapiens, UniProt Q9H4B4)
PDPK1 = PDPK1 (Homo sapiens, UniProt O15530)
VEGFR2 = target: T3, VEGFR2 (Homo sapiens, UniProt P35968)
T3 construct: gene KDR

LZK = target: T4, LZK (Homo sapiens, UniProt O43283)
T4 construct: gene MAP3K13

TNIK = TNIK (Homo sapiens, UniProt Q9UKE5)
EPHA7 = EPHA7 (Homo sapiens, UniProt Q15375)
PRKG1 = PRKG1 (Homo sapiens, UniProt Q13976)
AKT3 = AKT3 (Homo sapiens, UniProt Q9Y243)
MYLK4 = MYLK4 (Homo sapiens, UniProt Q86YV6)
SRPK3 = SRPK3 (Homo sapiens, UniProt Q9UPE1)
MLCK = target: T5, MLCK (Homo sapiens, UniProt Q32MK0)
T5 construct: gene MYLK3

PAK1 = PAK1 (Homo sapiens, UniProt Q13153)
ERBB4 = ERBB4 (Homo sapiens, UniProt Q15303)
CLK3 = CLK3 (Homo sapiens, UniProt P49761)
[2] = target: T6, ABL1(T315I)-nonphosphorylated (Homo sapiens, UniProt P00519, T315I)
T6 construct: nonphosphorylated

GSK3A = GSK3A (Homo sapiens, UniProt P49840)
MAP4K2 = MAP4K2 (Homo sapiens, UniProt Q12851)
BTK = BTK (Homo sapiens, UniProt Q06187)
S6K1 = target: T7, S6K1 (Homo sapiens, UniProt P23443)
T7 construct: gene RPS6KB1

TNIK, sequence (Q9UKE5 whole entry): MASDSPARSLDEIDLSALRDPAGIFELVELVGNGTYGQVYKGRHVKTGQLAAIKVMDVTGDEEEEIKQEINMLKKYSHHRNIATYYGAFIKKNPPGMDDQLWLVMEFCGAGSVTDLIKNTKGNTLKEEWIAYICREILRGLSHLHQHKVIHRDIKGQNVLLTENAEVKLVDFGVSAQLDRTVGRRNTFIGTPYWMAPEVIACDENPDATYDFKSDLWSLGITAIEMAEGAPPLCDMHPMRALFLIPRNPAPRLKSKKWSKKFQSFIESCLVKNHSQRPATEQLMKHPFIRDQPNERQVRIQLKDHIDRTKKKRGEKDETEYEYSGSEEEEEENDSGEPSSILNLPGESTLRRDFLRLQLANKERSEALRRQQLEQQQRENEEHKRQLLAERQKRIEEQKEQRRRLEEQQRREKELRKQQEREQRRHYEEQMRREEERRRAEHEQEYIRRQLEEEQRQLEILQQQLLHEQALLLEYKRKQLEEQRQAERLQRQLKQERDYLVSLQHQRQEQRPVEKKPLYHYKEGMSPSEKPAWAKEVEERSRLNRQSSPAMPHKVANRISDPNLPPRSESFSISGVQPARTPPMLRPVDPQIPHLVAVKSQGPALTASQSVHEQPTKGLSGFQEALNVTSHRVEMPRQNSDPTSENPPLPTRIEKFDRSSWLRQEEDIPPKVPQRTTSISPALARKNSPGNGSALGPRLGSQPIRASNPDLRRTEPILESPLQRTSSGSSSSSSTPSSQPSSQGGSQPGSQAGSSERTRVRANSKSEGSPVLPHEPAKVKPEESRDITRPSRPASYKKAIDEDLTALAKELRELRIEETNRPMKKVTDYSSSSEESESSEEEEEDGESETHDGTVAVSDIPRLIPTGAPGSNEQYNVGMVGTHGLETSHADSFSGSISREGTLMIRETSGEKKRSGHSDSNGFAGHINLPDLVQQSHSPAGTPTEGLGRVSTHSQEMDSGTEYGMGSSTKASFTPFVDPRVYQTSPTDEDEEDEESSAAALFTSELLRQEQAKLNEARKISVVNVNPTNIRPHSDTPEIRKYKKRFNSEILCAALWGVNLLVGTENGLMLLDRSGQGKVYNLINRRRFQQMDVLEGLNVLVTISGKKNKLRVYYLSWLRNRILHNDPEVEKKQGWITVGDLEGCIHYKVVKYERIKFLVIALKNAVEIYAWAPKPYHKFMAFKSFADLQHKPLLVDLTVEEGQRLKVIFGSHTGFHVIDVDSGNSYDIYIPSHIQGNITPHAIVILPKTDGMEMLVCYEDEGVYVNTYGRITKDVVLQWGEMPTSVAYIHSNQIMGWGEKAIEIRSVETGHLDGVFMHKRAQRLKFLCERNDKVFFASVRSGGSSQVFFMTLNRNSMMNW
ERBB4, sequence (Q15303 whole entry): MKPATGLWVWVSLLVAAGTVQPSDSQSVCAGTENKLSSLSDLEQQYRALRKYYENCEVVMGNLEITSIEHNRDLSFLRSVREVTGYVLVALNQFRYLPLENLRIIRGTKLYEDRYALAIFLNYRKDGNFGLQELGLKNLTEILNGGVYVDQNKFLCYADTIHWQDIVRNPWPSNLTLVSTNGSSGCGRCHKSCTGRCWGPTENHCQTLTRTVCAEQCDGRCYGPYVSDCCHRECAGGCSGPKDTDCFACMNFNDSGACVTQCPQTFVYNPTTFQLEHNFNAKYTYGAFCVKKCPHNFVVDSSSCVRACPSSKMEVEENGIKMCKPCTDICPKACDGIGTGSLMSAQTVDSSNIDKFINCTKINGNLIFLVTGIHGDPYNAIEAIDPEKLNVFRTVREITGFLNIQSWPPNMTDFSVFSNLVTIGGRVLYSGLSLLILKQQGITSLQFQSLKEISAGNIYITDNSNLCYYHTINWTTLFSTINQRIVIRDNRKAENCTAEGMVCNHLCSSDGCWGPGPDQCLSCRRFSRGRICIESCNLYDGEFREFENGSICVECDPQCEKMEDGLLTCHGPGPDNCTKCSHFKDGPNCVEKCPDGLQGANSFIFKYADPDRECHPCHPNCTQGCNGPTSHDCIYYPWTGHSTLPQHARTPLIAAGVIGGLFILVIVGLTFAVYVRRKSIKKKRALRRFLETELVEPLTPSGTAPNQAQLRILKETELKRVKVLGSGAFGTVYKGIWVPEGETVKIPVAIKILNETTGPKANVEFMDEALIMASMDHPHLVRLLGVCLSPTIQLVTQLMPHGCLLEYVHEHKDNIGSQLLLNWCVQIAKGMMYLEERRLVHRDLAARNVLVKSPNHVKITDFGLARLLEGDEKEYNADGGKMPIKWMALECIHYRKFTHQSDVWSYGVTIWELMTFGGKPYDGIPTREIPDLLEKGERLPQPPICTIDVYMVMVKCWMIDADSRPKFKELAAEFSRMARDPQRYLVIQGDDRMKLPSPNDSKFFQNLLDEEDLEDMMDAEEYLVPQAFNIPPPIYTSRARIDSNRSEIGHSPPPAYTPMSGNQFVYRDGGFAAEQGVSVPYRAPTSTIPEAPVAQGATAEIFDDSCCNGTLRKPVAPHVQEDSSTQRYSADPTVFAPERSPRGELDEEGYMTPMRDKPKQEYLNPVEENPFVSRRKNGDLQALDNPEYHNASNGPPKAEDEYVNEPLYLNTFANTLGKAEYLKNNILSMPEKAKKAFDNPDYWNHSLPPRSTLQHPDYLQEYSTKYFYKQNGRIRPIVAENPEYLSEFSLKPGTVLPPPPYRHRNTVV
PRKG1, sequence (Q13976 whole entry): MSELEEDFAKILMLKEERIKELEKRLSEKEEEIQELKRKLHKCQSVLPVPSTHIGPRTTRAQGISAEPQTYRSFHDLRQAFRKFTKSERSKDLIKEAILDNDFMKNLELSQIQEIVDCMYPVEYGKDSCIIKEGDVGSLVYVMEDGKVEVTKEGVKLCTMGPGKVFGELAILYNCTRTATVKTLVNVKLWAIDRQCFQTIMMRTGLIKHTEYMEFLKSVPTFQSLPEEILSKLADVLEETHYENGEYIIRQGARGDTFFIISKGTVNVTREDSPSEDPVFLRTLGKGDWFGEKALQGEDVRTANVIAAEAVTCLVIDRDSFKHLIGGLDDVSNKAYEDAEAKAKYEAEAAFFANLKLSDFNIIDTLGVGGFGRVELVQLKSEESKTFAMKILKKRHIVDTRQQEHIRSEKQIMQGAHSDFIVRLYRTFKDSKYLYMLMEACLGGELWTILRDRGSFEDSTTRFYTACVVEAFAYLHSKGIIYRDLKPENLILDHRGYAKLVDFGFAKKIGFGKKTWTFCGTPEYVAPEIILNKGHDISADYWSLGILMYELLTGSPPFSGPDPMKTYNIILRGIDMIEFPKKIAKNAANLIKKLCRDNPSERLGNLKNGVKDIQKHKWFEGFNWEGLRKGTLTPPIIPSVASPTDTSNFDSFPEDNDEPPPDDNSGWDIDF
ACVRL1, sequence (P37023 whole entry): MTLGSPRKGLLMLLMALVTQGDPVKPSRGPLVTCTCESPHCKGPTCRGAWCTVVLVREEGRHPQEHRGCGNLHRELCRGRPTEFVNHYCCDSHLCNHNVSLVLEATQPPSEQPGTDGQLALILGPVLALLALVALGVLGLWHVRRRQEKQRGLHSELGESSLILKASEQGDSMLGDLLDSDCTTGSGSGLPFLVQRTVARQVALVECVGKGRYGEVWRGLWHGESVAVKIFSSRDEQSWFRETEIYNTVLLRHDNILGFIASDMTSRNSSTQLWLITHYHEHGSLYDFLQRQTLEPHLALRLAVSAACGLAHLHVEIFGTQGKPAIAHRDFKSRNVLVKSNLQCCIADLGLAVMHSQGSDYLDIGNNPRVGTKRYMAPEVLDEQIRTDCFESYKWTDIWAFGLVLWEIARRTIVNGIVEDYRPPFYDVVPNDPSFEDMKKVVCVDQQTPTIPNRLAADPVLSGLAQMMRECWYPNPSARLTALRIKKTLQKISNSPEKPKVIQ
PLK3, sequence (Q9H4B4 whole entry): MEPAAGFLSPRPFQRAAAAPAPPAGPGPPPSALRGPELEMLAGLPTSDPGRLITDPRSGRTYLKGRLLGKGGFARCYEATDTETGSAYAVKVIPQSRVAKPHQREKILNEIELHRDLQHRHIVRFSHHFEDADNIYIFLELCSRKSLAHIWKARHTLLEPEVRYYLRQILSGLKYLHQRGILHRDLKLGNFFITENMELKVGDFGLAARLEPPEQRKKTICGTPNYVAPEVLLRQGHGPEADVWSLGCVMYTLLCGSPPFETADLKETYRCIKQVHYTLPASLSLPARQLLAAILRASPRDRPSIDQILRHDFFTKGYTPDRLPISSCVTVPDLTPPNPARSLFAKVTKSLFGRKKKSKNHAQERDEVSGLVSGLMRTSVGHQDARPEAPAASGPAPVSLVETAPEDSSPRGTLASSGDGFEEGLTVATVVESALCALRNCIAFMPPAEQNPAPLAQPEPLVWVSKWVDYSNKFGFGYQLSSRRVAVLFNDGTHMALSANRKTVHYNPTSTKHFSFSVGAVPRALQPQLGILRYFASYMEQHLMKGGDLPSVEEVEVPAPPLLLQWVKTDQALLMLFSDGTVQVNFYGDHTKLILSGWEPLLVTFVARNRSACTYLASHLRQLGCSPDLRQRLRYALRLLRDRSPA
PDPK1, sequence (O15530 whole entry): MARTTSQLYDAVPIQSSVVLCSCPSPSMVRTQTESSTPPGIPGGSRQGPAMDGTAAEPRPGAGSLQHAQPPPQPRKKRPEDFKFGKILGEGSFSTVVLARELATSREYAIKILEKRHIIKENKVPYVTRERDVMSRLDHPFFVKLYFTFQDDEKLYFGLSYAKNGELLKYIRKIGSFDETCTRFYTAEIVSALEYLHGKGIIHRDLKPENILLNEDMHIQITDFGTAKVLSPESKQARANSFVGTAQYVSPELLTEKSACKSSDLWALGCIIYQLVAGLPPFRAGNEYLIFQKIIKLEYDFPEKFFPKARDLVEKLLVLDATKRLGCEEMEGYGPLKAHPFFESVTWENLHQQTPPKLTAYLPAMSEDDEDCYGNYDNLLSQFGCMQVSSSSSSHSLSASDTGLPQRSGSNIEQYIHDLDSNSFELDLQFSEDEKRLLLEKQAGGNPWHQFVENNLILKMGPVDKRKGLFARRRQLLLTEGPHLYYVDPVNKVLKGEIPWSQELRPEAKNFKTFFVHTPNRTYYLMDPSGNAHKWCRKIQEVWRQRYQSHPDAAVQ

Cc1ccc(NC(=O)c2cccc(C(F)(F)F)c2)cc1Nc1cc(-c2cccnc2)nc2[nH]ccc12 [HZX-02-059]
remaining binding at 1 µM [1]: 93%
remaining binding at 1 µM (FLT3(N841I)): 88%
remaining binding at 1 µM (NIM1): 99%
remaining binding at 1 µM (ACVRL1): 75%
remaining binding at 1 µM (TAOK1): 100%
remaining binding at 1 µM (PLK3): 93%
remaining binding at 1 µM (PDPK1): 89%
remaining binding at 1 µM (VEGFR2): 100%
remaining binding at 1 µM (LZK): 100%
remaining binding at 1 µM (TNIK): 100%
remaining binding at 1 µM (EPHA7): 66%
remaining binding at 1 µM (PRKG1): 82%
remaining binding at 1 µM (AKT3): 69%
remaining binding at 1 µM (MYLK4): 90%
remaining binding at 1 µM (SRPK3): 93%
remaining binding at 1 µM (MLCK): 100%
remaining binding at 1 µM (PAK1): 94%
remaining binding at 1 µM (ERBB4): 86%
remaining binding at 1 µM (CLK3): 82%
remaining binding at 1 µM [2]: 77%
remaining binding at 1 µM (GSK3A): 98%
remaining binding at 1 µM (MAP4K2): 96%
remaining binding at 1 µM (BTK): 100%
remaining binding at 1 µM (S6K1): 95%

Reference: paper PMC8799717, “Pharmacological targeting PIKfyve and tubulin as an effective treatment strategy for double-hit lymphoma” (Cell Death Discovery, 2022)
